Laboratory results from ChEMBL document CHEMBL1201862, “PubChem BioAssay data set” (2004).
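Each compound was tested at five concentrations against cells in 96-well plates for 48 hours. GI50 marks 50% less growth.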 The source made the active and inactive calls. No stated cut-off is given here; in the data, active = GI50 up to about 1.1 µM and inactive = higher.

How the values were obtained:
Assay in all cases: NCI-60 cell line screen, 48 h
SW-620 = tested on: SW-620
UO-31 = tested on: UO-31
OVCAR-8 = tested on: OVCAR-8
EKVX = tested on: EKVX
U-251 = tested on: U-251
T47D = tested on: T47D
SNB-19 = tested on: SNB-19
UACC-257 = tested on: UACC-257
PC-3 = tested on: PC-3
K562 = tested on: K562
SF-539 = tested on: SF-539
OVCAR-4 = tested on: OVCAR-4
CCRF-CEM = tested on: CCRF-CEM
HCT-116 = tested on: HCT-116
TK-10 = tested on: TK-10
IGROV-1 = tested on: IGROV-1
RPMI-8226 = tested on: RPMI-8226
HL-60 = tested on: HL-60
LOX IMVI = tested on: LOX IMVI
OVCAR-5 = tested on: OVCAR-5

Row | Structure (SMILES) | GI50 (SW-620) | GI50 (UO-31) | GI50 (OVCAR-8) | GI50 (EKVX) | GI50 (U-251) | GI50 (T47D) | GI50 (SNB-19) | GI50 (UACC-257) | GI50 (PC-3) | GI50 (K562) | GI50 (SF-539) | GI50 (OVCAR-4) | GI50 (CCRF-CEM) | GI50 (HCT-116) | GI50 (TK-10) | GI50 (IGROV-1) | GI50 (RPMI-8226) | GI50 (HL-60) | GI50 (LOX IMVI) | GI50 (OVCAR-5)
1 | Cc1nc(C)c(N2CCN(C(=O)O)CC2)c(O)n1 | > 100 µM (inactive) | > 100 µM (inactive) | > 100 µM (inactive) | > 100 µM (inactive) | > 100 µM (inactive) | > 100 µM (inactive) | > 100 µM (inactive) | > 100 µM (inactive) | > 100 µM (inactive) | > 100 µM (inactive) | > 100 µM (inactive) | > 100 µM (inactive) | > 100 µM (inactive) | > 100 µM (inactive) | > 100 µM (inactive) | > 100 µM (inactive) | > 100 µM (inactive) | > 100 µM (inactive) | > 100 µM (inactive) | –
2 | COC(=O)n1c(=O)nc2c3c(ncn21)Oc1c(c(-c2ccccc2)nn1-c1ccccc1)C3c1ccc(Cl)cc1 (stereo not drawn) | 1.69 µM (inactive) | 1.68 µM (inactive) | 1.63 µM (inactive) | – | 1.71 µM (inactive) | 1.71 µM (inactive) | 1.75 µM (inactive) | 1.89 µM (inactive) | 1.59 µM (inactive) | 1.62 µM (inactive) | 1.76 µM (inactive) | 2.39 µM (inactive) | 1.5 µM (inactive) | 1.01 µM (active) | 1.79 µM (inactive) | – | 2.1 µM (inactive) | 1.51 µM (inactive) | 1.48 µM (inactive) | 1.32 µM (inactive)
3 | O=[N+]([O-])c1cccc(CSc2nc(O)c3nc[nH]c3n2)c1 | > 100 µM (inactive) | > 100 µM (inactive) | > 100 µM (inactive) | > 100 µM (inactive) | > 100 µM (inactive) | > 100 µM (inactive) | > 100 µM (inactive) | > 100 µM (inactive) | > 100 µM (inactive) | 78.2 µM (inactive) | – | > 100 µM (inactive) | 9.46 µM (inactive) | > 100 µM (inactive) | > 100 µM (inactive) | > 100 µM (inactive) | > 100 µM (inactive) | > 100 µM (inactive) | > 100 µM (inactive) | > 100 µM (inactive)
4 | Cc1cccc(/C=N/NC(=S)NC(C)(C)C)n1 | 16 µM (inactive) | 62.4 µM (inactive) | 50.8 µM (inactive) | – | 93.3 µM (inactive) | 6.24 µM (inactive) | > 100 µM (inactive) | > 100 µM (inactive) | 23.7 µM (inactive) | 5.15 µM (inactive) | > 100 µM (inactive) | 62.7 µM (inactive) | 1.64 µM (inactive) | 19.7 µM (inactive) | 75.2 µM (inactive) | 66.7 µM (inactive) | 32.9 µM (inactive) | 85.5 µM (inactive) | 66.5 µM (inactive) | 95.1 µM (inactive)
5 | CC(C)(C)c1cc(-c2cc(C(C)(C)C)[nH]n2)[nH]n1 | > 100 µM (inactive) | > 100 µM (inactive) | – | > 100 µM (inactive) | > 100 µM (inactive) | > 100 µM (inactive) | > 100 µM (inactive) | > 100 µM (inactive) | > 100 µM (inactive) | 47.5 µM (inactive) | > 100 µM (inactive) | > 100 µM (inactive) | 39.4 µM (inactive) | > 100 µM (inactive) | > 100 µM (inactive) | > 100 µM (inactive) | > 100 µM (inactive) | 46.8 µM (inactive) | 93.3 µM (inactive) | > 100 µM (inactive)
6 | C=C(C)C1CC/C(C)=C/CC[C@]2(C)O[C@H]2CC/C(COC(C)=O)=C\[C@@H]1O (stereo partly drawn) | > 50 µM (inactive) | > 50 µM (inactive) | > 50 µM (inactive) | > 50 µM (inactive) | > 50 µM (inactive) | > 50 µM (inactive) | > 50 µM (inactive) | > 50 µM (inactive) | 22.4 µM (inactive) | 11.1 µM (inactive) | > 50 µM (inactive) | > 50 µM (inactive) | 16.3 µM (inactive) | > 50 µM (inactive) | > 50 µM (inactive) | > 50 µM (inactive) | > 50 µM (inactive) | 27.4 µM (inactive) | – | > 50 µM (inactive)
